Measurements as given in patent publication US12084411B2, “Hinokitiol analogues, methods of preparing and pharmaceutical compositions thereof” (The Board of Trustees of the University of Illinois, priority 2018, dated 2024).
“Also recorded” adds a separate entry of the source. Marks after values point to notes of the source that are not given here.

Assays:
[1] = tested on: wild-type yeast (WT); assay: Toxicity to wild type yeast (structure-activity study, FIG. 25)
Protocol: Growth rescue in yeast was performed similar to previously reported (20) using 10 μM hinokitiol in low iron SD liquid media containing 10 μM FeCl3 in a 96-well plate unless otherwise noted. Wild type and fet3Δftr1Δ controls treated with vehicle (DMSO) were performed under identical conditions using the same low iron SD media containing 10 μM FeCl3 in the absence of hinokitiol. Yeast were grown overnight in YPD media and diluted at an OD600 of 0.1 in SD media, diluted 10-fold, and incubated at 30° C. with continuous shaking (200 rpm). The OD600 was obtained 24-48 hours after inoculation unless otherwise noted.
Small molecule dose-response (FIG. 1F) with hinokitiol and C2-deoxy hinokitiol (C2deOHino, see synthesis below) was determined by addition of the small molecule (40X stock solution in DMSO) to give the indicated final concentrations.

[2] = Determination of small molecule iron binding (UV-Vis); conditions: pH 7.0
Protocol: Small molecule iron (III) binding was determined by UV-Vis spectroscopy of small molecules (30 μM) before and after addition of FeCl3 (10 μM) or iron (III) citrate (10 μM, Sigma F3388) in 10 mM MES/Tris buffer at pH=7.0. Iron (II) binding was determined by UV-Vis spectroscopy of small molecules (30 μM) and FeCl2 (10 μM) in a 25 mM MES/Tris buffer at pH=7.0 containing 62.5 mM sodium ascorbate.

[3] = tested on: J774 macrophages; assay: Temporal imaging of cytosolic iron levels in J774 macrophages; format: cell-based, mouse; conditions: for calcein green fluorescence after reversal of the gradient: external FeCl3 100 μM at t=12 min; for calcein green fluorescence after small molecule addition: iron-loaded cells, 100 μM small molecule at t=5 min
Protocol: To assess for the capacity for hinokitiol to reversibly and autonomously transport iron across the plasma membrane through the creation of artificial iron gradients, J774 macrophages were grown in Ibidi dishes (Ibidi NC0723624) to ˜80% confluency before incubation with J774 Complete media containing 5 mM ascorbic acid and 200 μM FeSO4. The cells were incubated for 1.5 hours, media was aspirated, and the cells were rinsed with PBS. The cells were then incubated with calcein green-AM (1 μM) in DMEM for 20 minutes at 37° C. The media was aspirated and cells were rinsed (×2) with PBS before DMEM (pH=7.4 in 10 mM HEPES) and 1 mM probenecid (Sigma P8761) was added. Calcein green fluorescence was then imaged on a LSM880 microscope at 37° C. with 5% CO2 at the indicated time points for 30 minutes. Hinokitiol (100 μM final concentration), C2deOHino (100 μM final concentration), or DMSO (all from 1000X stocks in 50 μL DMEM) were added at 5 minutes, and a solution of FeCl3 (100 μM final concentration, in 50 μL DMEM) was added at 12 minutes. Fluorescence in each image at each time point was analyzed by ImageJ analysis then normalized to the fluorescence at t=0 for each image using >100 cells per experiment.

[4] = tested on: DMT1-deficient zebrafish; conditions: two days; for hemoglobinization (GFP-positive erythroids): 1 μM in water from 24 hpf; for number of fish with high hemoglobin levels (o-dianisidine): heterozygous cross of +/cdy fish
Protocol: The morpholinos (MOs) were purchased from GeneTools, LLC (Philomath, OR). The sequences of the MO used were as follows: dmt1 MO: 5′-[…]-3′; mfrnl MO: 5′-[…]-3′. Zebrafish embryos at the 1-cell stage were injected with MOs as previously described (72, 78). o-dianisidine staining for hemoglobinized cells in embryos was as previously described (79). Quantification by flow cytometry using fluorescently labeled erythrocytes from the transgenic Tg(globinLCR:eGFP) line (50) was performed as previously described (72, 75). Semi-quantitative RT-PCR of dmt1 mRNA in morphants was performed using custom designed probes as previously described (80). The sequences of the dmt1 primers are as follows: 5′-[…]-3′ (Fwd); 5′-[…]-3′ (Rev). The sequences of the control actb primers were as follows: 5′-[…]-3′ (Fwd); 5′-[…]-3′ (Rev).
(§1) Either mutant or morphant embryos were allowed to develop to >24 hours post fertilization (hpf), then dechorionated with pronase as previously described (81). The dechorionated embryos or morphants were then incubated in the presence of 1 μM hinokitiol (or vehicle) and 10 μM iron (III) citrate for an additional forty-eight hours. Vehicle treated embryos were exposed to […]. C2deOHino (1 μM) with iron (III) citrate (10 μM) was used as a negative control. Control and either mutant or morphant embryos at ˜72 hpf were either (a) directly stained by o-dianisidine (79) or (b) mechanically homogenized as previously described for flow cytometry (75, 78).

[5] = tested on: Alas2-deficient sauternes zebrafish; assay: Hemoglobinization in Alas2-deficient sauternes zebrafish; format: in vivo, Danio rerio; conditions: heterozygous cross of +/sau fish, 1 μM, 48 hours
Protocol: as §1

[6] = tested on: DMT1-deficient Belgrade (b/b) rats; assay: 59Fe gut absorption in Belgrade rats; format: in vivo; conditions: 1.5 mg/kg, oral gavage
Protocol: ^59Fe gastrointestinal absorption of iron in 3-5-month-old b/b rats was characterized similar to the procedure described above in the presence of either 6 mM hinokitiol or 6 mM C2deOHino. To compare with the rate of normal iron uptake, age-matched sibling control (+/+ or +/b) Belgrade rats were tested by the same procedure except that ^59Fe was administered without small molecule. Blood (50 μL) was taken from the tail vein at 15, 30, 60, 120, 180, 240, and 360 minutes post administration. Radioactivity was quantified by gamma counting and calculated as the percentage of gavaged dose (±SEM). Animals were humanely euthanized at 6 hours.

[7] = Iron (III) binding affinity, EDTA or citrate competition assay; conditions: for KA for iron (III): EDTA competition (citrate for maltol), pH 7.0
Protocol: Specifically, the association constant for iron (II) was determined by a ferrozine competition assay (KA of ferrozine=3.65×10^15) (60). FeCl2 (25 μM) was pre-mixed with ferrozine (75 μM) in a 25 mM MES/Tris buffer at pH=7.0 containing 62.5 mM sodium ascorbate. Then increasing concentrations of small molecule (from 40X stocks in DMSO) were added to the indicated final concentrations. The solutions were allowed to equilibrate for 24 hours before reading of the absorbance at 562 nm. […] The system was allowed to equilibrate overnight, and the absorbance corresponding to the Fe(chelator)3 complex was determined. The EC50 values for each chelator were calculated by a nonlinear curve fit (Hill1) on OriginPro by plotting the absorbance vs. concentration of titrant, and the KA for each complex was determined from the equation: KA, ligand=(KA, competitor*[EC50])/[ligand] where the ligand is the molecule originally bound to iron, and the competitor is the competing chelator.

[8] = DMT1-deficient morphant zebrafish

Row | Structure (SMILES) | toxicity to wild type yeast [1] | iron binding [2] | calcein green fluorescence after reversal of the gradient [3] | calcein green fluorescence after small molecule addition [3] | hemoglobinization (GFP-positive erythroids) [4, 8] | number of fish with high hemoglobin levels (o-dianisidine) [4] | hemoglobinization [5] | reduction in 59Fe absorption relative to sibling controls (+/+ or +/b) [6] | KA for iron (III) [7] | KA for iron (III) ([7]; listed as Hinokitiol) | pFe^III ([7]; estimated from known pFe of EDTA (citrate for maltol)) | observable toxicity ([4]; DMT1-deficient morphant zebrafish, 1 μM) | hemoglobinization ([5]; listed as Hinokitiol) | gut iron absorption ([6]; after one hour)
1 | CC(C)c1cccc(=O)cc1 [C2deOHino, C2-deoxy hinokitiol] | no biological activity | does not bind iron; also recorded: cannot bind or transport iron | no effect | no effect | no effect | no effect | do not promote hemoglobinization | 2 fold |  |  |  |  |  | 
2 | CC(C)c1cccc(=O)c(O)c1 [hinokitiol] | kills wild-type yeast (WT) only at high concentrations | binds iron (III) | quenching of calcein green fluorescence was observed | rapidly increased calcein green fluorescence | promoted hemoglobinization | increased the number of fish exhibiting high hemoglobin levels | did not rescue |  | 5.8×10^25 | 5.8 × 10^25 | 23.7^† | without observable toxicity | do not promote hemoglobinization | increased ^55Fe absorption back to control levels
